Source: PMC8085414, “L-Carnitine Production Through Biosensor-Guided Construction of the Neurospora crassa Biosynthesis Pathway in Escherichia coli” (Frontiers in Bioengineering and Biotechnology, 2021)

Target: T1, TMABADH.1S (Neurospora crassa, UniProt Q7RYT1)
T1 construct: gene NCU00378; 495 AA short annotation of NCU00378; codon-harmonized synthetic gene in pECXT99A, E. coli DH5alpha crude extract
T1 sequence (Q7RYT1 52-546): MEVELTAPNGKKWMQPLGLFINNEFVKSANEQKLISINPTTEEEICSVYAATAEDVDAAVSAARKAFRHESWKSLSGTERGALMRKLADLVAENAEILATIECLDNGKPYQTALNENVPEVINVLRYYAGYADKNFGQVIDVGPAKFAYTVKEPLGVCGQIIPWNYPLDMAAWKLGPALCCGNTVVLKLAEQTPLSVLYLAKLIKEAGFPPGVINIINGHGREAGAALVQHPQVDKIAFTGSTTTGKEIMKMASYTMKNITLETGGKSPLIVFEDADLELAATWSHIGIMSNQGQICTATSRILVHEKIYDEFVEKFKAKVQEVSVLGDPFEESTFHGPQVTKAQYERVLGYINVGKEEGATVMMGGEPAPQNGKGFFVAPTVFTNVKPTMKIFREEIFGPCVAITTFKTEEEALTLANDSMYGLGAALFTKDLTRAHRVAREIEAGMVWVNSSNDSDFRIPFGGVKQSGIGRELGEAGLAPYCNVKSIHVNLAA
Test: NADH formation at […] nm, E. coli crude extract
Type: biochemical
Conditions: 2 mM NAD+, 0.4 mM TMABA iodide, glycine-NaOH pH 9.5, 30 °C

`NC(=O)c1ccc[n+]([C@@H]2O[C@H](COP(=O)(O)OP(=O)(O)OC[C@H]3O[C@@H](n4cnc5c(N)ncnc54)[C@H](O)[C@@H]3O)[C@@H](O)[C@H]2O)c1` [NAD^+] was tested, and the “NADH formation at 340 nm, E. coli crude extract” value was “co-conversion of NAD^+ to NADH in the TMABADH reaction”.
